# System: HaCaT cells
# Experiment: Concentrations of inflammatory mediators produced by HaCaT cells stimulated with TNFα and IFNγ in presence/absence of JAK inhibitors (ProCarta)
# Type: cell-based, human
# Conditions: TNFα+IFNγ 25 ng/mL each
# Protocol: After 48 hours, cell culture media was removed from 24 well plates and replaced with 250 uL of media containing serial diluted drug, then incubated for 15 minutes at 37° C./5% CO2. […] The final concentration of Recombinant Human Interferon gamma and Recombinant Human Tumor Necrosis Factor alpha was 25 ng/mL of each cytokine. Cytokine stimulation added to wells containing drug brought the final concentrations for each drug treatment to 25 nM, 50 nM, 100 nM, and 200 nM. Treated plates were mixed by gentle agitation for 30 seconds then incubated for 24 hours at 37° C./5% CO2. At the end of the 24 hour incubation media was immediately removed from each plate.
# Media was incubated with antibody conjugated beads designed to bind to the epitopes of specific target proteins and identify the bound protein through the bead's distinctive spectral pattern. Biotinylated detection antibodies, designed to bind to different epitopes of the same target proteins, and Streptavidin-PE are added to assay plates to quantify the amount of the target proteins. Assay plates were read on the Luminex 200 and data were expressed as Net Median Fluorescence Intensity. […] The concentration of each protein was extrapolated from the antigen standard curve and concentrations were expressed as pg/mL (Table 15).
# [1] = drug conc. 1st of 4 rows (cell not shown; prob. 25 nM)
# [2] = drug conc. 2nd of 4 rows (cell not shown; prob. 50 nM)
# [3] = drug conc. 3rd of 4 rows (cell not shown; prob. 100 nM)
smiles,measurement,setting,value
"Cc1n[nH]c(C)c1-c1cnn(C2(CC#N)CN(c3cc(F)c(C(=O)N[C@@H](C)C(F)(F)F)cc3F)C2)c1 [Cpd C, 4-[3-(Cyanomethyl)-3-(3′,5′-dimethyl-1H,1′H-4,4′-bipyrazol-1-yl)azetidin-1-yl]-2,5-difluoro-N-[(1S)-2,2,2-trifluoro-1-methylethyl]benzamide]",IFN gamma concentration,[1],27765.18 ± 4653.71 pg/mL
same,IL1RA concentration,[1],6175.66 ± 277.7 pg/mL
same,IL1 alpha concentration,[1],7.74 ± 0.36 pg/mL
same,IL1 beta concentration,[1],8.88 ± 0.35 pg/mL
same,IL2 concentration,[1],31.39 ± 1.44 pg/mL
same,IL4 concentration,[1],8.31 ± 2.19 pg/mL
same,IL5 concentration,[1],27.03 ± 1.35 pg/mL
same,IL6 concentration,[1],774.87 ± 31.09 pg/mL
same,IL7 concentration,[1],2.18 ± 0.15 pg/mL
same,IL8 concentration,[1],2879.27 ± 117.07 pg/mL
same,IL9 concentration,[1],3.37 ± 0.33 pg/mL
same,IL10 concentration,[1],0.75 ± 0.05 pg/mL
same,IL12p70 concentration,[1],1.97 ± 0.22 pg/mL
same,IL13 concentration,[1],2.93 ± 0.41 pg/mL
same,IL15 concentration,[1],3.97 ± 0.71 pg/mL
same,IL17A concentration,[1],4.27 ± 0.42 pg/mL
same,IL18 concentration,[1],163.63 ± 3.29 pg/mL
same,IL21 concentration,[1],2.71 ± 0.18 pg/mL
same,IL22 concentration,[1],7.15 ± 1.16 pg/mL
same,IL23 concentration,[1],7.43 ± 0 pg/mL
same,IL27 concentration,[1],8.88 ± 1.64 pg/mL
same,IL31 concentration,[1],3.52 ± 0.53 pg/mL
same,IP-10/CXCL10 concentration,[1],3999.9 ± 370.53 pg/mL
same,LIF concentration,[1],67.72 ± 2.04 pg/mL
same,MCP1 concentration,[1],15200 ± 0 pg/mL
same,MIP1 alpha concentration,[1],101.71 ± 3.84 pg/mL
same,MIP1 beta concentration,[1],318.92 ± 6.03 pg/mL
same,PDGF-BB concentration,[1],4.93 ± 0.21 pg/mL
same,PIGF-1 concentration,[1],58.04 ± 2.17 pg/mL
same,RANTES concentration,[1],216.88 ± 13.45 pg/mL
same,SCF concentration,[1],4.34 ± 0.19 pg/mL
same,SDF-1 alpha concentration,[1],3503.89 ± 90.15 pg/mL
same,TNF alpha concentration,[1],11212.78 ± 1168.53 pg/mL
same,TNF beta concentration,[1],5.68 ± 1.4 pg/mL
same,VEGF-A concentration,[1],1261.47 ± 37.95 pg/mL
same,VEGF-D concentration,[1],8.6 ± 0.74 pg/mL
same,IFN gamma concentration,[2],23531.94 ± 2644.35 pg/mL
same,IL1RA concentration,[2],6065 ± 325.72 pg/mL
same,IL1 alpha concentration,[2],7.01 ± 0.39 pg/mL
same,IL1 beta concentration,[2],8.72 ± 0.47 pg/mL
same,IL2 concentration,[2],29.87 ± 1.38 pg/mL
same,IL4 concentration,[2],5.24 ± 0.99 pg/mL
same,IL5 concentration,[2],26.49 ± 1.58 pg/mL
same,IL6 concentration,[2],710.89 ± 36.7 pg/mL
same,IL7 concentration,[2],2.02 ± 0.07 pg/mL
same,IL8 concentration,[2],2869.74 ± 167.65 pg/mL
same,IL9 concentration,[2],3.7 ± 0^ pg/mL
same,IL10 concentration,[2],0.74 ± 0.06 pg/mL
same,IL12p70 concentration,[2],1.72 ± 0.2 pg/mL
same,IL13 concentration,[2],2.24 ± 0.28 pg/mL
same,IL15 concentration,[2],2.29 ± 0.44 pg/mL
same,IL17A concentration,[2],3.48 ± 0.39 pg/mL
same,IL18 concentration,[2],156.41 ± 4.19 pg/mL
same,IL21 concentration,[2],2.88 ± 0 pg/mL
same,IL22 concentration,[2],8.03 ± 0.87 pg/mL
same,IL23 concentration,[2],7.43 ± 0 pg/mL
same,IL27 concentration,[2],5.98 ± 1.08 pg/mL
same,IL31 concentration,[2],3.36 ± 0.27 pg/mL
same,IP-10/CXCL10 concentration,[2],3665.2 ± 277.11 pg/mL
same,LIF concentration,[2],67.64 ± 3.17 pg/mL
same,MCP1 concentration,[2],33175.72 ± 17975.72 pg/mL
same,MIP1 alpha concentration,[2],104.54 ± 6.56 pg/mL
same,MIP1 beta concentration,[2],318.37 ± 9.88 pg/mL
same,PDGF-BB concentration,[2],5.22 ± 0.25 pg/mL
same,PIGF-1 concentration,[2],55.59 ± 2.74 pg/mL
same,RANTES concentration,[2],201.93 ± 15.44 pg/mL
same,SCF concentration,[2],4.25 ± 0.22 pg/mL
same,SDF-1 alpha concentration,[2],3471.01 ± 141.19 pg/mL
same,TNF alpha concentration,[2],10367.04 ± 1016.28 pg/mL
same,TNF beta concentration,[2],5.54 ± 0.56 pg/mL
same,VEGF-A concentration,[2],1268.91 ± 59.05 pg/mL
same,VEGF-D concentration,[2],8.44 ± 0.66 pg/mL
same,IFN gamma concentration,[3],23113.79 ± 2086.62 pg/mL
same,IL1RA concentration,[3],6167.55 ± 367.54 pg/mL
same,IL1 alpha concentration,[3],7.27 ± 0.47 pg/mL
same,IL1 beta concentration,[3],8.55 ± 0.34 pg/mL
same,IL2 concentration,[3],30.51 ± 1.23 pg/mL
same,IL4 concentration,[3],6.26 ± 1.35 pg/mL
same,IL5 concentration,[3],28.64 ± 1.4 pg/mL
same,IL6 concentration,[3],690.4 ± 35.25 pg/mL
same,IL7 concentration,[3],2.04 ± 0.11 pg/mL
same,IL8 concentration,[3],3035.52 ± 206.85 pg/mL
same,IL9 concentration,[3],4.16 ± 0.46 pg/mL
same,IL10 concentration,[3],0.75 ± 0.07 pg/mL
same,IL12p70 concentration,[3],1.75 ± 0.23 pg/mL
same,IL13 concentration,[3],2.58 ± 0.36 pg/mL
same,IL15 concentration,[3],2.42 ± 0.54 pg/mL
same,IL17A concentration,[3],3.77 ± 0.42 pg/mL
same,IL18 concentration,[3],162.12 ± 5.14 pg/mL
